Ki data for 17 compounds are collected here from US10287269B2, “Pyrazolyl pyrimidinone compounds as PDE2 inhibitors” (Merck Sharp & Dohme Corp., priority 2015, dated 2019).

The first assay has as its target T1, Rhesus PDE2A3 (Macaca mulatta, UniProt B3VTJ2).
T1 construct: made in house; host or cells: AD293 cells, transient transfection, pcDNA3.3-TOPO; lysate supernatant used as enzyme
T1 sequence (B3VTJ2 1-941): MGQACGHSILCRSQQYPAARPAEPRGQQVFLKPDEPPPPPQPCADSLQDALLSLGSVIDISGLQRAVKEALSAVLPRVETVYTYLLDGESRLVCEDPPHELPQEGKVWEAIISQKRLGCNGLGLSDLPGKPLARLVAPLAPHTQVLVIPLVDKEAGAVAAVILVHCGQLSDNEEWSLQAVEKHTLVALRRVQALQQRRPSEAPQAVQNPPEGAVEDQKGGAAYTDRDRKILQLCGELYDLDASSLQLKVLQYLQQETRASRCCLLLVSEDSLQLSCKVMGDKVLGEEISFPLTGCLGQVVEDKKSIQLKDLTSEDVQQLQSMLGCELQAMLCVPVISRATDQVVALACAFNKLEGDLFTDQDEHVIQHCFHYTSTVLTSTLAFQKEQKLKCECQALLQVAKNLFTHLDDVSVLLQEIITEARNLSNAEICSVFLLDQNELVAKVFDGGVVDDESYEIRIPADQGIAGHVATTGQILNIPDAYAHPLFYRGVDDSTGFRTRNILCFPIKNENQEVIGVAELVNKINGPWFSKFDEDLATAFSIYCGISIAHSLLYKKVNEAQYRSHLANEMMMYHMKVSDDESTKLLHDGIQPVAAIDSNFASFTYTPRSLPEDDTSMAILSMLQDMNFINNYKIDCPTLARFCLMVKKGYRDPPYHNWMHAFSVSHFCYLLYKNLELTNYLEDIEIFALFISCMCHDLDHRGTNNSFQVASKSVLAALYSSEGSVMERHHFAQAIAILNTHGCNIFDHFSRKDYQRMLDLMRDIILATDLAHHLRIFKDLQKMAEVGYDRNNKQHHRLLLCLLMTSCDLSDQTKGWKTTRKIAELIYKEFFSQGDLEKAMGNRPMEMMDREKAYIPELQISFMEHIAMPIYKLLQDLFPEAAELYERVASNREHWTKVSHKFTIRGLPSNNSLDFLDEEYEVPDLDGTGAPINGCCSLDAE
Nature of the assay: PDE2 fluorescence polarization (IMAP FP) inhibition assay, rhesus enzyme. It is filed as biochemical, rhesus macaque. The settings on record: Lab A; read-out: Rhesus PDE2 Ki (nM) Lab A. The procedure:
The activity of the compounds in accordance with the present invention as PDE2 inhibitors may be readily determined using a fluorescence polarization (FP) methodology (Huang, W., et al., J. Biomol Screen, 2002, 7: 215).
In a typical experiment the PDE2 inhibitory activity of the compounds of the present invention was determined in accordance with the following experimental method. Rhesus PDE2A3 was amplified from rhesus macaque brain cDNA (Biochain Institute, Hayward, Calif.) using primers based on human PDE2A sequence (accession NM_002599.3) where the forward primer containing a Kozak consensus was 5′-[…]-3′ and the reverse primer was 5′-[…]-3′. Amplification with Easy-A High-Fidelity PCR cloning enzyme (Stratagene, La Jolla, Calif.) was 95° C. for 2 minutes followed by thirty three cycles of 95° C. for 40 seconds, 52° C. for 30 seconds, and 72° C. for 2 minutes 48 seconds. Final extension was 72° C. for 7 minutes. The PCR product was TA cloned into pcDNA3.3-TOPO (Invitrogen, Carlsbad, Calif.) according to standard protocol. A consensus sequence was developed from multiple clones and then deposited into GenBank (EU812167). AD293 cells (Stratagene, La Jolla, Calif.) with 70-80% confluency were transiently transfected with rhesus PDE2A3/pcDNA3.3-TOPO using Lipofectamine 2000 according to manufacturer specifications (Invitrogen, Carlsbad, Calif.). Cells were harvested 48 hours post-transfection and lysed by sonication (setting 3, 10×5 sec pulses) in a buffer containing 20 mM HEPES pH 7.4, 1 mM EDTA and Complete Protease Inhibitor Cocktail Tablets (Roche, Indianapolis, Ind.). Lysate was collected by centrifugation at 75,000×g for 20 minutes at 4° C. and supernatant utilized for evaluation of PDE2 activity. The fluorescence polarization assay for cyclic nucleotide phosphodiesterases was performed using an IMAP® FP kit supplied by Molecular Devices, Sunnyvale, Calif. (product # R8139). […] Assays were performed at room temperature in 384-well microtiter plates with an incubation volume of 20.2 μL. Solutions of test compounds were prepared in DMSO and serially diluted with DMSO to yield 8 μL of each of 10 solutions differing by 3-fold in concentration, at 32 serial dilutions per plate. […] 0% of inhibition is determined by using DMSO (1% final concentrations).
A Labcyte Echo 555 (Labcyte, Sunnyvale, Calif.) is used to dispense 200 nL from each well of the titration plate to the 384 well assay plate. Ten microliters of a solution of enzyme (1/2000 final dilution from aliquots; sufficient to produce 20% substrate conversion) was added to the assay plate. Next 10 uL of a separate solution of the substrate FAM-labeled cAMP (50 nM final concentration product # R7506 from Molecular Devices) and the activator cGMP (1 uM final concentration), prepared in the assay buffer (10 mM Tris HCl, pH 7.2, 10 mM MgCl2, 0.05% NaN3 0.01% Tween-20, and 1 mM DTT) was added to the assay plate and shaken to mix. The reaction is allowed to proceed at room temperature for 60 minutes. A binding solution is then made from the kit components, comprised of 80% Solution A, 20% Solution B and binding reagent at a volume of 1/600 the total binding solution. The enzymatic reaction is stopped by addition of 60 μl, of the binding solution to each well of the assay plates and the plates are sealed and shaken for 30 seconds. The plate was incubated at room temperature for at least one hour prior to determining the fluorescence polarization (FP). The parallel and perpendicular fluorescence of each well of the plate was measured using a Tecan Genios Pro plate reader (Tecan, Switzerland) or Perkin Elmer EnVision™ plate reader (Waltham, Mass.). Fluorescence polarization (mP) was calculated from the parallel (S) and perpendicular (P) fluorescence of each sample well and the analogous values for the median control well, containing only substrate (So and Po), using the following equation: Polarization (mP)=1000*(S/So−P/Po)/(S/So+P/Po).
(In fluorescence polarisation assays a small probe gives low polarisation when free and higher when bound to something large.)
One may read the Ki as the dissociation constant of the complex between target and ligand, obtained from inhibition or displacement. With `COCc1ccc(C(C)n2cc(-c3cc(=O)[nH]c(C)n3)cn2)c(Cl)c1` (single isomer, unassigned) [Example 103, (R)- or (S)-6-(1-(1-(2-chloro-4-(methoxymethyl)phenyl)ethyl)-1H-pyrazol-4-yl)-2-methylpyrimidin-4(3H)-one], the inhibitory constant (Ki) worked out at 106 nM.

For `Cc1nc(-c2cnn(C(C)c3ccc(C4CC4)cc3F)c2)cc(=O)[nH]1` (single isomer, unassigned) [Example 92, (S)- or (R)-6-(1-(1-(4-cyclopropyl-2-fluorophenyl)ethyl)-1H-pyrazol-4-yl)-2-methylpyrimidin-4(3H)-one], the Ki was 212 nM. For `Cc1nc(-c2cnn(C(C)c3ccc(OC(F)F)cc3F)c2)cc(=O)[nH]1` (single isomer, unassigned) [Example 88, (S)- or (R)-6-(1-(1-(4-(difluoromethoxy)-2-fluorophenyl)ethyl)-1H-pyrazol-4-yl)-2-methylpyrimidin-4(3H)-one], the Ki amounted to 162 nM.

`Cc1nc(-c2cnn(C(C)c3ccc(C(F)(F)F)cc3Cl)c2)cc(=O)[nH]1` (single isomer, unassigned) [Example 84, (S)- or (R)-6-(1-(1-(2-chloro-4-(trifluoromethyl)phenyl)ethyl)-1H-pyrazol-4-yl)-2-methylpyrimidin-4(3H)-one]: the inhibition constant Ki was found to be 179 nM. On the same count and under the same terms, the value for `CCc1ccc(C(C)n2cc(-c3cc(=O)[nH]c(C)n3)cn2)c(Cl)c1` (single isomer, unassigned) [Example 100, (S)- or (R)-6-(1-(1-(2-chloro-4-ethylphenyl)ethyl)-1H-pyrazol-4-yl)-2-methylpyrimidin-4(3H)-one] was 384 nM; that for `COCc1ccc(C(C)n2cc(-c3cc(=O)[nH]c(C)n3)cn2)c(F)c1` (single isomer, unassigned) [Example 97, (R)- or (S)-6-(1-(1-(2-fluoro-4-(methoxymethyl)phenyl)ethyl)-1H-pyrazol-4-yl)-2-methylpyrimidin-4(3H)-one] was 464 nM.

Take `Cc1nc(-c2cnn(C(C)c3ccc(CC(F)(F)F)cc3F)c2)cc(=O)[nH]1` (single isomer, unassigned) [Example 95, (R)- or (S)-6-(1-(1-(2-fluoro-4-(2,2,2-trifluoroethyl)phenyl)ethyl)-1H-pyrazol-4-yl)-2-methylpyrimidin-4(3H)-one]: the inhibitory constant (Ki) came out at 1140 nM. The same measure, in the same setting: as for `Cc1nc(-c2cnn(C(C)C3CCOCC3)c2)cc(=O)[nH]1` (stereo not drawn) [Example 68, 2-methyl-6-(1-(1-(tetrahydro-2H-pyran-4-yl)ethyl)-1H-pyrazol-4-yl)pyrimidin-4(3H)-one], the figure is 30100 nM.

Staying with this assay, now noted: Lab B; read-out: Rhesus PDE2 Ki (nM) Lab B.
For the compound `CNC(c1ccc(C(F)(F)F)cc1)c1cnn(-c2cc(=O)[nH]c(C)n2)c1` (stereo not drawn) [Example 31, 2-Methyl-6-(4-((methylamino)(4-(trifluoromethyl)phenyl)methyl)-1H-pyrazol-1-yl)pyrimidin-4(3H)-one], the Ki is 488 nM.

`Cc1nc(-n2cc(C(C)c3ccc4c(c3)OCC4(C)C)cn2)cc(=O)[nH]1` (stereo not drawn) [Example 47, 6-(4-(1-(3,3-dimethyl-2,3-dihydrobenzofuran-6-yl)ethyl)-1H-pyrazol-1-yl)-2-methylpyrimidin-4(3H)-one]: the Ki stood at 1240 nM. On the same count and under the same terms, as for `Cc1nc(-c2cnn(C(C)c3ccc(F)cc3)c2)cc(=O)[nH]1` (stereo not drawn) [Example 152, 6-(1-(1-(4-fluorophenyl)ethyl)-1H-pyrazol-4-yl)-2-methylpyrimidin-4(3H)-one], the figure is 4130 nM; as for `COC(=O)c1ccc(C(C)n2ccc(-c3cc(=O)[nH]c(C)n3)n2)cc1` (stereo not drawn) [Example 162, methyl 4-(1-(3-(2-methyl-6-oxo-1,6-dihydropyrimidin-4-yl)-1H-pyrazol-1-yl)ethyl)benzoate], 29800 nM; as for `COc1cc(C(F)(F)F)ccc1[C@@H](C)n1cc(-c2cc(=O)[nH]c(C)n2)cn1` (single isomer, unassigned) [Example 1], 301 nM. Same read-out and setting: the value for `Cc1nc(-n2cc(C(C)c3ccc(C(F)(F)F)c(F)c3)cn2)cc(=O)[nH]1` (single isomer, unassigned) [Example 50, (R)- or (S)-6-(4-(1-(3-fluoro-4-(trifluoromethyl)phenyl)ethyl)-1H-pyrazol-1-yl)-2-methylpyrimidin-4(3H)-one] was over 1000 nM.

In the case of `Cc1nc(-c2cc(C(C)c3ccc(C(F)(F)F)cc3)nn2C)cc(=O)[nH]1` (single isomer, unassigned) [Example 132, (S)- or (R)-2-methyl-6-(1-methyl-3-(1-(4-(trifluoromethyl)phenyl)ethyl)-1H-pyrazol-5-yl)pyrimidin-4(3H)-one], the inhibition constant Ki is over 1000 nM. On to `Cc1nc(-c2ccnn2C(C)c2ccc(C(F)(F)F)cc2)cc(=O)[nH]1` (stereo not drawn) [Example 74, 2-methyl-6-(1-(1-(4-(trifluoromethyl)phenyl)ethyl)-1H-pyrazol-5-yl)pyrimidin-4(3H)-one], for which the Ki was found to be 11000 nM.

Take `Cc1nc(-c2ccn(C(C)c3cccc(C(F)(F)F)c3)n2)cc(=O)[nH]1` (stereo not drawn) [Example 159, 2-methyl-6-(1-(1-(3-(trifluoromethyl)phenyl)ethyl)-1H-pyrazol-3-yl)pyrimidin-4(3H)-one]: the Ki was 25700 nM. As for `Cc1nc(-c2cnn(C(C)C3CCOCC3)c2)cc(=O)[nH]1` (stereo not drawn) [Example 68, 2-methyl-6-(1-(1-(tetrahydro-2H-pyran-4-yl)ethyl)-1H-pyrazol-4-yl)pyrimidin-4(3H)-one], the inhibition constant (Ki) amounted to 40100 nM.
